Here are results for 13 compounds from US9499550B2 (BRISTOL-MYERS SQUIBB COMPANY, priority 2012, dated 2016).

What is called EC50 is the concentration at which the effect is half-maximal.

Where two headings read alike, the source gives them in different places.

In assay [1] the test system is HCV genotype 1a (H77 strain) replicon in HUH-7 cells. The assay can be described thus: HCV replicon luciferase reporter assay, genotype 1a. The class given is cell-based. As to conditions: Hepatitis C virus, Huh-7, 72 h, HCV genotype 1a replicon luciferase assay, 3 days incubation, range class, read-out: LE_1a (EC50, range). In short, it runs like this: (§1)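 Replicon inhibition for both genotypes was measured as Renilla luciferase signal (EnduRen, 7.5 μM final, 2 h) after 3-day, 37° C exposure of replicon-bearing HUH-7 cells in 4% FCS DMEM, 0.5% DMSO. The 1b construct carries S1179I; the 1a H77 construct carries P1496L and S2204I. Twenty-point, 3-fold dilutions were fitted four-parametrically for EC50, and CC50 was taken from multiplexed Cell Titer-Blue.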

In assay [2] the test system is HCV genotype 1b (Con1) replicon in HUH-7 cells. The assay can be described thus: HCV replicon luciferase reporter assay, genotype 1b. The assay is classed as cell-based. The settings on record: Hepatitis C virus, Huh-7, 72 h, HCV genotype 1b replicon luciferase assay, 3 days incubation, range class, read-out: LE_1b (EC50, range). A digest of the protocol: as §1
For orientation: Replicon systems follow genome replication, usually without infectious particles.

Regarding `COc1ccc2c(O[C@@H]3C[C@H]4C(=O)N[C@]5(C(=O)NS(=O)(=O)C6(CF)CC6)C[C@H]5/C=C\CC[C@H](C)C[C@@H](C)[C@H](NC(=O)OC(C)(C)C(F)(F)F)C(=O)N4C3)nc(N3CCCC3)nc2c1` [Compound 3018, 1,1,1-trifluoro-2-methylpropan-2-yl((2R,6S,7R,9S,13aS,14aR,16aS,Z)-14a-(((1-(fluoromethyl)cyclopropyl)sulfonyl)carbamoyl)-2-((7-methoxy-2-(pyrrolidin-1-yl)quinazolin-4-yl)oxy)-7,9-dimethyl-5,16-dioxo-1,2,3,5,6,7,8,9,10,11,13a,14,14a,15,16,16a-hexadecahydrocyclopropa[e]pyrrolo[1,2-a][1,4]diazacyclopentadecin-6-yl)carbamate], the EC50 in assay [1] and in assay [2] was 4.82 to 103 nM throughout.
As for `COc1ccc2c(O[C@@H]3C[C@H]4C(=O)N[C@]5(C(=O)NS(=O)(=O)C6(CF)CC6)C[C@H]5/C=C\CC[C@@H](C)C[C@@H](C)[C@H](NC(=O)OC(C)(C)C(F)(F)F)C(=O)N4C3)nc(N3CCCC3)nc2c1` [Compound 3019, 1,1,1-trifluoro-2-methylpropan-2-yl((2R,6S,7R,9R,13aS,14aR,16aS,Z)-14a-(((1-(fluoromethyl)cyclopropyl)sulfonyl)carbamoyl)-2-((7-methoxy-2-(pyrrolidin-1-yl)quinazolin-4-yl)oxy)-7,9-dimethyl-5,16-dioxo-1,2,3,5,6,7,8,9,10,11,13a,14,14a,15,16,16a-hexadecahydrocyclopropa[e]pyrrolo[1,2-a][1,4]diazacyclopentadecin-6-yl)carbamate], the EC50 is 4.82 to 103 nM in assay [1] and less than 5.46 nM in assay [2].
Turning to `COc1ccc2c(O[C@@H]3C[C@H]4C(=O)N[C@]5(C(=O)NS(=O)(=O)C6(CF)CC6)C[C@H]5/C=C\CC[C@@H](C)C[C@@H](C)[C@H](NC(=O)OC(C)(C)C(F)(F)F)C(=O)N4C3)nc(OC)nc2c1` [Compound 3020], the EC50 is 4.82 to 103 nM in assay [1] (GETYPE1A) and less than 5.46 nM in assay [2] (GETYPE1B).
Turning to `COc1ccc2c(O[C@@H]3C[C@H]4C(=O)N[C@]5(C(=O)NS(=O)(=O)C6CC6)C[C@H]5/C=C\CC[C@H](C)C[C@@H](C)[C@H](NC(=O)OC(C)(C)C(F)(F)F)C(=O)N4C3)nc(-c3ccc(OC(C)C)cc3)nc2c1` [Compound 3021, 1,1,1-trifluoro-2-methylpropan-2-yl((2R,6S,7R,9S,13aS,14aR,16aS,Z)-14a-((cyclopropylsulfonyl)carbamoyl)-2-((2-(4-isopropoxyphenyl)-7-methoxyquinazolin-4-yl)oxy)-7,9-dimethyl-5,16-dioxo-1,2,3,5,6,7,8,9,10,11,13a,14,14a,15,16,16a-hexadecahydrocyclopropa[e]pyrrolo[1,2-a][1,4]diazacyclopentadecin-6-yl)carbamate], the EC50 in assay [1] and in assay [2] was less than 5.46 nM throughout.
As for `COc1ccc2c(O[C@@H]3C[C@H]4C(=O)N[C@]5(C(=O)NS(=O)(=O)C6CC6)C[C@H]5/C=C\CC[C@@H](C)C[C@@H](C)[C@H](NC(=O)OC(C)(C)C(F)(F)F)C(=O)N4C3)nc(-c3ccc(OC(C)C)cc3)nc2c1` [Compound 3022, 1,1,1-trifluoro-2-methylpropan-2-yl((2R,6S,7R,9R,13aS,14aR,16aS,Z)-14a-((cyclopropylsulfonyl)carbamoyl)-2-((2-(4-isopropoxyphenyl)-7-methoxyquinazolin-4-yl)oxy)-7,9-dimethyl-5,16-dioxo-1,2,3,5,6,7,8,9,10,11,13a,14,14a,15,16,16a-hexadecahydrocyclopropa[e]pyrrolo[1,2-a][1,4]diazacyclopentadecin-6-yl)carbamate], the concentration for a half-maximal effect (EC50) in assay [1] and in assay [2] was less than 5.46 nM throughout.
Turning to `CC[C@@H]1C[C@@H](C)CC/C=C\[C@@H]2C[C@@]2(C(=O)NS(=O)(=O)C2(C)CC2)NC(=O)[C@@H]2C[C@@H](Oc3nccc4c(OC)cccc34)CN2C(=O)[C@H]1NC(=O)OC(C)(C)C` [Compound 3023, tert-butyl ((2R,6S,7R,9S,13aS,14aR,16aS,Z)-7-ethyl-2-((5-methoxyisoquinolin-1-yl)oxy)-9-methyl-14a-(((1-methylcyclopropyl)sulfonyl)carbamoyl)-5,16-dioxo-1,2,3,5,6,7,8,9,10,11,13a,14,14a,15,16,16a-hexadecahydrocyclopropa[e]pyrrolo[1,2-a][1,4]diazacyclopentadecin-6-yl)carbamate], the EC50 in assay [1] and in assay [2] was 4.82 to 103 nM throughout.
Regarding `CC[C@@H]1C[C@H](C)CC/C=C\[C@@H]2C[C@@]2(C(=O)NS(=O)(=O)C2(C)CC2)NC(=O)[C@@H]2C[C@@H](Oc3nccc4c(OC)cccc34)CN2C(=O)[C@H]1NC(=O)OC(C)(C)C` [Compound 3024, tert-butyl ((2R,6S,7R,9R,13aS,14aR,16aS,Z)-7-ethyl-2-((5-methoxyisoquinolin-1-yl)oxy)-9-methyl-14a-(((1-methylcyclopropyl)sulfonyl)carbamoyl)-5,16-dioxo-1,2,3,5,6,7,8,9,10,11,13a,14,14a,15,16,16a-hexadecahydrocyclopropa[e]pyrrolo[1,2-a][1,4]diazacyclopentadecin-6-yl)carbamate], the EC50 in assay [1] and in assay [2] was less than 5.46 nM in each case.
As for `CC[C@@H]1C[C@@H](C)CC/C=C\[C@@H]2C[C@@]2(C(=O)NS(=O)(=O)C2CC2)NC(=O)[C@@H]2C[C@@H](Oc3nccc4c(OC)cccc34)CN2C(=O)[C@H]1NC(=O)OC(C)(C)C` [Compound 3025, tert-butyl ((2R,6S,7R,9S,13aS,14aR,16aS,Z)-14a-((cyclopropylsulfonyl)carbamoyl)-7-ethyl-2-((5-methoxyisoquinolin-1-yl)oxy)-9-methyl-5,16-dioxo-1,2,3,5,6,7,8,9,10,11,13a,14,14a,15,16,16a-hexadecahydrocyclopropa[e]pyrrolo[1,2-a][1,4]diazacyclopentadecin-6-yl)carbamate], the EC50 in assay [1] and in assay [2] was 4.82 to 103 nM each time.
Turning to `CC[C@@H]1C[C@H](C)CC/C=C\[C@@H]2C[C@@]2(C(=O)NS(=O)(=O)C2CC2)NC(=O)[C@@H]2C[C@@H](Oc3nccc4c(OC)cccc34)CN2C(=O)[C@H]1NC(=O)OC(C)(C)C` [Compound 3026, tert-butyl ((2R,6S,7R,9R,13aS,14aR,16aS,Z)-14a-((cyclopropylsulfonyl)carbamoyl)-7-ethyl-2-((5-methoxyisoquinolin-1-yl)oxy)-9-methyl-5,16-dioxo-1,2,3,5,6,7,8,9,10,11,13a,14,14a,15,16,16a-hexadecahydrocyclopropa[e]pyrrolo[1,2-a][1,4]diazacyclopentadecin-6-yl)carbamate], the EC50 in assay [1] and in assay [2] was less than 5.46 nM throughout.
For the compound `CC[C@@H]1C[C@@H](C)CC/C=C\[C@@H]2C[C@@]2(C(=O)NS(=O)(=O)C2(C)CC2)NC(=O)[C@@H]2C[C@@H](Oc3nccc4c(OC)cccc34)CN2C(=O)[C@H]1NC(=O)OC(C)(C)C(F)(F)F` [Compound 3027, 1,1,1-trifluoro-2-methylpropan-2-yl((2R,6S,7R,9S,13aS,14aR,16aS,Z)-7-ethyl-2-((5-methoxyisoquinolin-1-yl)oxy)-9-methyl-14a-(((1-methylcyclopropyl)sulfonyl)carbamoyl)-5,16-dioxo-1,2,3,5,6,7,8,9,10,11,13a,14,14a,15,16,16a-hexadecahydrocyclopropa[e]pyrrolo[1,2-a][1,4]diazacyclopentadecin-6-yl)carbamate], the EC50 in assay [1] and in assay [2] was 4.82 to 103 nM in each case.
In the case of `CC[C@@H]1C[C@H](C)CC/C=C\[C@@H]2C[C@@]2(C(=O)NS(=O)(=O)C2(C)CC2)NC(=O)[C@@H]2C[C@@H](Oc3nccc4c(OC)cccc34)CN2C(=O)[C@H]1NC(=O)OC(C)(C)C(F)(F)F` [Compound 3028, 1,1,1-trifluoro-2-methylpropan-2-yl((2R,6S,7R,9R,13aS,14aR,16aS,Z)-7-ethyl-2-((5-methoxyisoquinolin-1-yl)oxy)-9-methyl-14a-(((1-methylcyclopropyl)sulfonyl)carbamoyl)-5,16-dioxo-1,2,3,5,6,7,8,9,10,11,13a,14,14a,15,16,16a-hexadecahydrocyclopropa[e]pyrrolo[1,2-a][1,4]diazacyclopentadecin-6-yl)carbamate], the EC50 in assay [1] and in assay [2] was less than 5.46 nM in each case.
Turning to `CC[C@@H]1C[C@@H](C)CC/C=C\[C@@H]2C[C@@]2(C(=O)NS(=O)(=O)C2CC2)NC(=O)[C@@H]2C[C@@H](Oc3nccc4c(OC)cccc34)CN2C(=O)[C@H]1NC(=O)NC(C)(C)C` [Compound 3029, (2R,6S,7R,9S,13aS,14aR,16aS,Z)-6-(3-(tert-butyl)ureido)-N-(cyclopropylsulfonyl)-7-ethyl-2-((5-methoxyisoquinolin-1-yl)oxy)-9-methyl-5,16-dioxo-1,2,3,5,6,7,8,9,10,11,13a,14,14a,15,16,16a-hexadecahydrocyclopropa[e]pyrrolo[1,2-a][1,4]diazacyclopentadecine-14a-carboxamide], the EC50 in assay [1] and in assay [2] was 4.82 to 103 nM in each case.
Turning to `CC[C@@H]1C[C@H](C)CC/C=C\[C@@H]2C[C@@]2(C(=O)NS(=O)(=O)C2CC2)NC(=O)[C@@H]2C[C@@H](Oc3nccc4c(OC)cccc34)CN2C(=O)[C@H]1NC(=O)NC(C)(C)C` [Compound 3030, (2R,6S,7R,9R,13aS,14aR,16aS,Z)-6-(3-(tert-butyl)ureido)-N-(cyclopropylsulfonyl)-7-ethyl-2-((5-methoxyisoquinolin-1-yl)oxy)-9-methyl-5,16-dioxo-1,2,3,5,6,7,8,9,10,11,13a,14,14a,15,16,16a-hexadecahydrocyclopropa[e]pyrrolo[1,2-a][1,4]diazacyclopentadecine-14a-carboxamide], the EC50 in assay [1] and in assay [2] was less than 5.46 nM each time.
